{"source": "patent US10624968B2", "about": "“Compounds for treating cancer” (Bicycle Therapeutics Limited, priority 2017, dated 2020)", "key": {"[1]": {"experiment": "Mortality, morbidity and body weight in HT1080 xenograft study (Example 13)", "assay_type": "in vivo, mouse", "conditions": "10 mg/kg biw", "description": "(§1) All the procedures related to animal handling, care and the treatment in the study were performed following the guidance of the Association for Assessment and Accreditation of Laboratory Animal Care (AAALAC). At the time of routine monitoring, the animals were daily checked for any effects of tumor growth and treatments on normal behavior such as mobility, food and water consumption (by looking only), body weight gain/loss (body weights were measured every day), eye/hair matting and any other abnormal effect as stated in the protocol. Death and observed clinical signs were recorded on the basis of the numbers of animals within each subset.\nBody weight was monitored regularly as an indirect measure of toxicity."}, "LU-01-0486 PDX": {"test_system": "LU-01-0486 PDX", "experiment": "Efficacy in MT1-MMP low-expressing LU-01-0486 NSCLC PDX model", "assay_type": "in vivo, mouse", "conditions": "dose not given", "description": "The objective of this study was to evaluate the in vivo anti-tumor efficacy of I-1a in the treatment of MT1-MMP low-expressing LU-01-0486 PDX model in female Balb/C nude mice\nEach mouse was inoculated subcutaneously at the right flank with LU-01-0486 of tumor fragment (30 mm^3) for tumor development. The treatments was started when the average tumor volume reaches 164 mm^3.\nThe major endpoint was to see if the tumor growth could be delayed or mice could be cured. Tumor size was measured two times weekly in two dimensions using a caliper, and the volume was expressed in mm^3 using the formula: V=0.5 a×b^2 where a and b are the long and short diameters of the tumor, respectively. […]\nTGI was calculated for each group using the formula: TGI (%)=[1−(Ti−T0)/(Vi−V0)]×100; Ti is the average tumor volume of a treatment group on a given day, T0 is the average tumor volume of the treatment group on the day of treatment start, Vi is the average tumor volume of the vehicle control group on the same day with Ti, and V0 is the average tumor volume of the vehicle group on the day of treatment start.\nA one-way ANOVA was performed to compare tumor volume among groups, and when a significant F-statistics (a ratio of treatment variance to the error variance) was obtained, comparisons between groups were carried out with Games-Howell test. All data were analyzed using Prism. […]"}, "[2]": {"experiment": "Tolerability (body weight) in LU-01-0486 NSCLC PDX model", "assay_type": "in vivo, mouse", "conditions": "dose not given; humane sacrifice of animals at day 24", "description": "as §1, with “twice weekly),” for “every day),”"}, "HT29 [3]": {"test_system": "HT29", "experiment": "cells", "conditions": "Homo sapiens, HT-29, 72 h", "description": "(§2) Details of the initial cell plating procedure are described in Table 3.\n(§3) Data Details for Tables 5 and 6. Inhibition %=(Max−Sample value)/(Max−Min)*100.\n(§4) The IC50 curves were generated by 4 Parameter Logistic Model—Sigmoidal Dose-Response Model as follows: Y=Bottom+(Top−Bottom)/(1+10^((log EC50-X)*HillSlope))."}, "HCC1806 [4]": {"test_system": "HCC1806", "experiment": "cells", "conditions": "Homo sapiens, HCC1806, 72 h", "description": "as §2, §3, §4"}, "NCI-H1975 [5]": {"test_system": "NCI-H1975", "experiment": "cells", "conditions": "Homo sapiens, NCI-H1975, 72 h", "description": "as §2, §3, §4"}, "EBC-1 [6]": {"test_system": "EBC-1", "experiment": "cells", "conditions": "Homo sapiens, EBC-1, 72 h", "description": "as §2, §3, §4"}, "SNU-16 [7]": {"test_system": "SNU-16", "experiment": "cells", "conditions": "Homo sapiens, SNU-16, 72 h", "description": "as §2, §3, §4"}, "HT1080 [8]": {"test_system": "HT1080", "experiment": "cells", "conditions": "Homo sapiens, HT-1080, 72 h", "description": "as §2, §3, §4"}, "NCI-H292 [9]": {"test_system": "NCI-H292", "experiment": "cells", "conditions": "Homo sapiens, NCI-H292, 72 h", "description": "as §2, §3, §4"}, "MOLP-8 [10]": {"test_system": "MOLP-8", "experiment": "cells", "conditions": "Homo sapiens, MOLP-8, 72 h", "description": "as §2, §3, §4"}, "HCT15 [11]": {"test_system": "HCT15", "experiment": "cells", "conditions": "Homo sapiens, HCT-15, 72 h", "description": "as §2, §3, §4"}, "PC-3 [12]": {"test_system": "PC-3", "experiment": "cells", "conditions": "Homo sapiens, PC-3, 72 h", "description": "as §2, §3, §4"}, "MDA-MB-231 [13]": {"test_system": "MDA-MB-231", "experiment": "cells", "conditions": "Homo sapiens, MDA-MB-231, 72 h", "description": "as §2, §3, §4"}, "11 tumor cell lines": {"test_system": "11 tumor cell lines", "experiment": "11 cancer cell line panel cytotoxicity, statements on the whole panel", "description": "as §2, §3, §4"}, "NCI-H292 [14]": {"test_system": "NCI-H292", "conditions": "historical, read-out: IC50* (Historical IC50 observed for paclitaxel); cited from earlier work"}, "HCT15 [15]": {"test_system": "HCT15", "conditions": "historical, read-out: IC50* (Historical IC50 observed for paclitaxel); cited from earlier work"}, "EBC-1 [16]": {"test_system": "EBC-1", "conditions": "historical, read-out: IC50* (Historical IC50 observed for paclitaxel); cited from earlier work"}, "HCC1806 [17]": {"test_system": "HCC1806", "conditions": "historical, read-out: IC50* (Historical IC50 observed for paclitaxel); cited from earlier work"}, "HT1080 [18]": {"test_system": "HT1080", "conditions": "historical, read-out: IC50* (Historical IC50 observed for paclitaxel); cited from earlier work"}, "MOLP-8 [19]": {"test_system": "MOLP-8", "conditions": "historical, read-out: IC50* (Historical IC50 observed for paclitaxel); cited from earlier work"}, "PC-3 [20]": {"test_system": "PC-3", "conditions": "historical, read-out: IC50* (Historical IC50 observed for paclitaxel); cited from earlier work"}, "MDA-MB-231 [21]": {"test_system": "MDA-MB-231", "conditions": "historical, read-out: IC50* (Historical IC50 observed for paclitaxel); cited from earlier work"}, "SNU-16 [22]": {"test_system": "SNU-16", "conditions": "historical, read-out: IC50* (Historical IC50 observed for paclitaxel); cited from earlier work"}, "HT29 [23]": {"test_system": "HT29", "conditions": "historical, read-out: IC50* (Historical IC50 observed for paclitaxel); cited from earlier work"}, "NCI-H1975 [24]": {"test_system": "NCI-H1975", "conditions": "historical, read-out: IC50* (Historical IC50 observed for paclitaxel); cited from earlier work"}}, "note": "Where two headings read alike, the source gives them in different places. Starred links: 1 amine or outer side, 2 acyl side, 3 side chain; linkers in the order of their positions; H or OH if unused. Positions of bridges follow the written chain, without caps; N, C: chain ends. Non-standard residues stand in square brackets, D forms with d. Residues, ends and D or L forms follow the SMILES beside them. ξ: configuration not given here. *: point of attachment. X3 = COc1cc2cc(c1Cl)N(C)C(=O)C[C@H](OC(=O)[C@H](C)N(C)C(=O)CCSCc1ccc(N*)cc1)[C@]1(C)O[C@H]1[C@H](C)[C@@H]1C[C@@](O)(NC(=O)O1)[C@H](OC)/C=C/C=C(\\C)C2; TBMB = c1c(C[*:1])cc(C[*:3])cc1C[*:2]; Glutaryl = O=C(CCCC(=O)[*:2])[*:1]; ξ1Nal = NC(Cc1cccc2ccccc12)C(=O)O; Cit = NC(=O)NCCC[C@H](N)C(=O)O; ξY = NC(Cc1ccc(O)cc1)C(=O)O; ξTle = CC(C)(C)C(N)C(=O)O; ξF = NC(Cc1ccccc1)C(=O)O; ξE = NC(CCC(=O)O)C(=O)O; ξD = NC(CC(=O)O)C(=O)O; ξN = NC(=O)CC(N)C(=O)O; ξC = NC(CS)C(=O)O; βAla = NCCC(=O)O; ξA = CC(N)C(=O)O; Sar = CNCC(=O)O", "data": [{"smiles": "COc1cc2cc(c1Cl)N(C)C(=O)C[C@H](OC(=O)[C@H](C)N(C)C(=O)CCSCc1ccc(NC(=O)[C@H](CCCNC(N)=O)NC(=O)[C@@H](NC(=O)CCCC(=O)NCCC(=O)N(C)CC(=O)N(C)CC(=O)N(C)CC(=O)N(C)CC(=O)N(C)CC(=O)N(C)CC(=O)N(C)CC(=O)N(C)CC(=O)N(C)CC(=O)N(C)CC(=O)NC(C)C(=O)NC3CSCc4cc5cc(c4)CSCC(NC(=O)C(C)NC(=O)C(Cc4cccc6ccccc46)NC(=O)C(CCC(=O)O)NC(=O)C(CC(N)=O)NC(=O)C(C)NC3=O)C(=O)NC(C)C(=O)NC(CC(=O)O)C(=O)NC(Cc3ccccc3)C(=O)NC(Cc3ccc(O)cc3)C(=O)NC(CC(=O)O)C(=O)NC(C(C)(C)C)C(=O)NC(C(N)=O)CSC5)C(C)C)cc1)[C@]1(C)O[C@H]1[C@H](C)[C@@H]1C[C@@](O)(NC(=O)O1)[C@H](OC)/C=C/C=C(\\C)C2", "note": "(stereo partly drawn) [Compound I-7] ({X3-Cit-Val-Glutaryl-βAla}-[Sar][Sar][Sar][Sar][Sar][Sar][Sar][Sar][Sar][Sar][ξA][ξC][ξA][ξN][ξE][ξ1Nal][ξA][ξC][ξA][ξD][ξF][ξY][ξD][ξTle][ξC]-NH2; linker 12-18-25 via TBMB)", "values": [{"measurement": "mice died during the dosing period", "setting": "[1]", "value": "2/3"}]}, {"smiles": "CC(=O)O[C@@]12CO[C@@H]1C[C@H](O)[C@@]1(C)C(=O)[C@H](O)C3=C(C)[C@@H](OC(=O)[C@H](O)[C@@H](NC(=O)OC(C)(C)C)c4ccccc4)C[C@@](O)([C@@H](OC(=O)c4ccccc4)[C@H]21)C3(C)C", "note": "[Docetaxel]", "values": [{"measurement": "inhibition of tumor growth (in words)", "setting": "LU-01-0486 PDX", "value": "significant inhibition of tumor growth"}, {"measurement": "effect on body weight (in words)", "setting": "[2]", "value": "severe weight loss"}]}, {"smiles": "CC(=O)O[C@H]1C(=O)[C@@]2(C)[C@H]([C@H](OC(=O)c3ccccc3)[C@]3(O)C[C@H](OC(=O)[C@H](O)[C@@H](NC(=O)c4ccccc4)c4ccccc4)C(C)=C1C3(C)C)[C@]1(OC(C)=O)CO[C@@H]1C[C@@H]2O", "note": "[Paclitaxel]", "values": [{"measurement": "IC50", "setting": "HT29 [3]", "value": 4.1, "unit": "nM"}, {"measurement": "IC50", "setting": "HCC1806 [4]", "value": 2.7, "unit": "nM"}, {"measurement": "IC50", "setting": "NCI-H1975 [5]", "value": 7.2, "unit": "nM"}, {"measurement": "IC50", "setting": "EBC-1 [6]", "value": 4.1, "unit": "nM"}, {"measurement": "IC50", "setting": "SNU-16 [7]", "value": 2.5, "unit": "nM"}, {"measurement": "IC50", "setting": "HT1080 [8]", "value": 6.6, "unit": "nM"}, {"measurement": "IC50", "setting": "NCI-H292 [9]", "value": 2.9, "unit": "nM"}, {"measurement": "IC50", "setting": "MOLP-8 [10]", "value": 6.9, "unit": "nM"}, {"measurement": "IC50", "setting": "HCT15 [11]", "value": 112, "unit": "nM"}, {"measurement": "IC50", "setting": "PC-3 [12]", "value": 9.2, "unit": "nM"}, {"measurement": "IC50", "setting": "MDA-MB-231 [13]", "value": 4.8, "unit": "nM"}, {"measurement": "cytotoxic activity over the cell line panel (in words)", "setting": "11 tumor cell lines", "value": "worked well on all the tested cell lines"}, {"measurement": "IC50", "setting": "NCI-H292 [14]", "value": 2, "unit": "nM"}, {"measurement": "IC50", "setting": "HCT15 [15]", "value": 128, "unit": "nM"}, {"measurement": "IC50", "setting": "EBC-1 [16]", "value": 4, "unit": "nM"}, {"measurement": "IC50", "setting": "HCC1806 [17]", "value": 2, "unit": "nM"}, {"measurement": "IC50", "setting": "HT1080 [18]", "value": 1, "unit": "nM"}, {"measurement": "IC50", "setting": "MOLP-8 [19]", "value": 4, "unit": "nM"}, {"measurement": "IC50", "setting": "PC-3 [20]", "value": 12, "unit": "nM"}, {"measurement": "IC50", "setting": "MDA-MB-231 [21]", "value": 9, "unit": "nM"}, {"measurement": "IC50", "setting": "SNU-16 [22]", "value": 2, "unit": "nM"}, {"measurement": "IC50", "setting": "HT29 [23]", "value": 2, "unit": "nM"}, {"measurement": "IC50", "setting": "NCI-H1975 [24]", "value": 5, "unit": "nM"}]}]}
